Literature values as cited in patent US6376550B1, “Pharmaceutical compositions containing tramadol for migraine” (ASTA Medica AG, priority 1999, dated 2002).

Details: in vivo

In the case of COc1cccc(C2(O)CCCCC2CN(C)C)c1 (stereo not shown) [tramadol, 2-[(dimethylamino)methyl]-1-(3-methoxyphenyl)cyclohexanol], the “terminal elimination half life” value is listed as 5 to 6 h.
